In patent US7585460B2, “Method for inhibiting the biological acidification of water in contact with materials containing sulfur” (ENI S.p.A., priority 2003, dated 2009):

Assays:
Format in all cases: cell-based, Thiobacillus
[1] = system: Thiobacilli (microbial consortium); assay: Comparison of NaCl and SLS, TM medium with sulfur flowers and inoculated mixed culture (Example 6); settings: for O.D. / p.H.: B: 33 g/l of NaCl
Experimental: The experiment was aimed at comparing the action of SLS, a known bacteriostatic for Thiobacilli, and Sodium Chloride on the same microbial consortium.
A series of 6 100 ml flasks containing 50 ml of TM medium (with 0.4 g of sulfur flowers), were inoculated with 1 ml of mixed culture containing 10^8 cells/ml.
• A—2 control flasks containing TM and sulfur, without NaCl; • B—2 flasks with TM, sulfur and 33 g/l of NaCl; • C—2 flasks with TM, sulfur and 20 mg/l of SLS (concentration used in literature as bacteriostatic) The pH values and the bacterial growth were measured over a period of 34 days, by means of the increase in the absorbance.

Thiobacilli (consortium) = assay: Acidification of TM medium with sulfur powder inoculated with a culture of Thiobacilli (Example 3); settings: 33 g/l NaCl
Experimental: 25 ml of TM medium (regulated to pH 6 with HCl 0.1 N and sterilized in an autoclave with vapour for 20 minutes at 121° C.) were introduced into 100 ml flasks. 0.1 g (0.4%) of elemental sulfur (sulfur powder 98%-UNI sieved:0.05) were added to the TM culture medium. 2 g of small sulfur fragments taken from a sulfur deposit in Canada exposed for years to the outside environment and consequently definitely contaminated by sulfo-oxidizing bacteria, were added to the medium as a source of micro-organisms. The cultures were incubated under bland orbital stirring (100 rpm) for 25 days. During the incubation, the cultures were controlled daily for the indirect quantitative evaluation of the cellular development by registering the optical density value (at 600 nm) and to measure the lowering of the pH value.
At the end of this period, the culture broths obtained, with a cellular density higher than 10^7 cells/ml and a lowering of the pH of the medium to a value of 1.5, were filtered on common filter paper to eliminate the particles of excess sulfur and to be preserved, in 2 ml aliquots, in polypropylene phials, in a refrigerator at −70° C., as standardized inoculum.
The two consortia: that produced starting from collection strains and the one prepared starting from sulfur samples removed from actual deposits, were compared with respect to the growth curves and acidification capacity. […] It was then decided to use, for the whole following experiment, the trigger culture consisting of the wild type strains selected from the natural environment. This culture is hereafter called “consortium”.
25 ml of TM—in demineralized water—at pH 6, inoculated with 0.4% (vol/vol) of the bacterial suspension (consortium), with the addition of 0.1 g of sulfur powder, were introduced into 100 ml flasks. 33 g/l of NaCl were added to the medium to evaluate the inhibiting effect of the salt on the growth of the Thiobacilli and the acidification of the solution. Control cultures without NaCl were incubated parallelly.
The culture broths were controlled for pH and absorbance variations.

Thiobacilli = assay: Acidification of rainwater in contact with solid sulfur test samples colonized by Thiobacilli (Example 5); settings: 33 g/l NaCl
Experimental: The following experimental systems were prepared, using test samples of solid sulfur (discoid tables each of about 13 g). • System A: Containing 2 test samples not colonized by microbial cells, placed on the bottom of the container, completely immersed in rainwater (sterilized at a low temperature by micro-filtration); • System A1: Containing two non-colonized test samples, only dampened—by means of a sprayer—with rainwater sterilized by micro-filtration. • System B: Containing 2 colonized test samples (previously immersed in a suspension of 10^8 cells/ml of Thiobacilli and left to dry in the air), placed on the bottom of the container, entirely immersed in micro-filtered rainwater; • System B1: Containing two colonized test samples as per the previous system, only dampened with rainwater sterilized by micro-filtration; • System C: Containing 2 colonized test samples entirely immersed in micro-filtered rainwater, in which 33 g/l of Nacl are dissolved; • System C1: containing 2 colonized test samples only dampened with rainwater sterilized by micro-filtration and containing 33 g/l of NaCl.
The pH variation measurements during 48 days of experimentation are represented in Table 4.

In the case of `[Cl-].[Na+]` [NaCl, Sodium Chloride], the “efficacy of the treatment with respect to that with SLS” value ([1]; 33 g/l NaCl vs 20 mg/l SLS, possibly due to the different concentrations) is reported as “greater efficacy”, the “inhibition of the acidification of water in contact with elemental sulfur” value ([1]; 33 g/l NaCl, 20 mg/l SLS) is reported as “capable of inhibiting the acidification” and the O.D. ([1]; day 0) is reported as 0.014. The p.H. ([1]; day 0) was 6.0, the O.D. ([1]; day 3) was 0.015 and the p.H. ([1]; day 3) was 6.0. For the same compound, the O.D. ([1]; day 5) was 0.017, the p.H. ([1]; day 5) was 6.0 and the O.D. ([1]; day 8) was 0.023. For the same compound, the p.H. ([1]; day 8) was 5.8, the O.D. ([1]; day 11) was 0.028 and the p.H. ([1]; day 11) was 5.8. For the same compound, the O.D. ([1]; day 16) was 0.025, the p.H. ([1]; day 16) was 5.8 and the O.D. ([1]; day 21) was 0.026. The p.H. ([1]; day 21) was 5.8, the O.D. ([1]; day 23) was 0.022 and the p.H. ([1]; day 23) was 5.8. The O.D. ([1]; day 28) was 0.022, the p.H. ([1]; day 28) was 5.8 and the O.D. ([1]; day 31) was 0.026. For the same compound, the p.H. ([1]; day 31) was 5.8, the Optical density (Thiobacilli (consortium); day 0) was 0.021 and the pH (Thiobacilli (consortium); day 0) was 6.0. For the same compound, the Optical density (Thiobacilli (consortium); day 1) was 0.025, the pH (Thiobacilli (consortium); day 1) was 6.0 and the Optical density (Thiobacilli (consortium); day 3) was 0.024. It also gave a pH (Thiobacilli (consortium); day 3) of 6.0, an Optical density (Thiobacilli (consortium); day 5) of 0.028 and a pH (Thiobacilli (consortium); day 5) of 5.8. It also gave an Optical density (Thiobacilli (consortium); day 9) of 0.021, a pH (Thiobacilli (consortium); day 9) of 5.8 and an Optical density (Thiobacilli (consortium); day 12) of 0.021. The pH (Thiobacilli (consortium); day 12) was 5.8, the Optical density (Thiobacilli (consortium); day 14) was 0.021 and the pH (Thiobacilli (consortium); day 14) was 5.8. For the same compound, the Optical density (Thiobacilli (consortium); day 16) was 0.014, the pH (Thiobacilli (consortium); day 16) was 5.8 and the Optical density (Thiobacilli (consortium); day 19) was 0.012. For the same compound, the pH (Thiobacilli (consortium); day 19) was 5.8, the Optical density (Thiobacilli (consortium); day 21) was 0.010 and the pH (Thiobacilli (consortium); day 21) was 5.8. It also gave an Optical density (Thiobacilli (consortium); day 24) of 0.010, a pH (Thiobacilli (consortium); day 24) of 5.8 and an Optical density (Thiobacilli (consortium); day 26) of 0.014. The pH (Thiobacilli (consortium); day 26) was 5.8, the “pH values in the systems” value (Thiobacilli; System C1: colonized samples only dampened with rainwater, day 0) was 6.0 and the “pH values in the systems” value (Thiobacilli; System C1: colonized samples only dampened with rainwater, day 3) was 5.8. The “pH values in the systems” value (Thiobacilli; System C1: colonized samples only dampened with rainwater, day 5) was 5.8, the “pH values in the systems” value (Thiobacilli; System C1: colonized samples only dampened with rainwater, day 7) was 5.8 and the “pH values in the systems” value (Thiobacilli; System C1: colonized samples only dampened with rainwater, day 10) was 5.8. The “pH values in the systems” value (Thiobacilli; System C1: colonized samples only dampened with rainwater, day 12) was 5.8, the “pH values in the systems” value (Thiobacilli; System C1: colonized samples only dampened with rainwater, day 15) was 5.8 and the “pH values in the systems” value (Thiobacilli; System C1: colonized samples only dampened with rainwater, day 21) was 5.8. The “pH values in the systems” value (Thiobacilli; System C1: colonized samples only dampened with rainwater, day 29) was 5.8, the “pH values in the systems” value (Thiobacilli; System C1: colonized samples only dampened with rainwater, day 32) was 5.8 and the “pH values in the systems” value (Thiobacilli; System C1: colonized samples only dampened with rainwater, day 35) was 5.8. For the same compound, the “pH values in the systems” value (Thiobacilli; System C1: colonized samples only dampened with rainwater, day 38) was 5.8, the “pH values in the systems” value (Thiobacilli; System C1: colonized samples only dampened with rainwater, day 42) was 5.8 and the “pH values in the systems” value (Thiobacilli; System C1: colonized samples only dampened with rainwater, day 46) was 5.8. For the same compound, the “pH values in the systems” value (Thiobacilli; System C1: colonized samples only dampened with rainwater, day 48) was 5.8, the “pH values in the systems” value (Thiobacilli; System C: colonized samples immersed in rainwater, day 0) was 6.0 and the “pH values in the systems” value (Thiobacilli; System C: colonized samples immersed in rainwater, day 3) was 6.0. For the same compound, the “pH values in the systems” value (Thiobacilli; System C: colonized samples immersed in rainwater, day 5) was 6.0, the “pH values in the systems” value (Thiobacilli; System C: colonized samples immersed in rainwater, day 7) was 5.8 and the “pH values in the systems” value (Thiobacilli; System C: colonized samples immersed in rainwater, day 10) was 5.8. For the same compound, the “pH values in the systems” value (Thiobacilli; System C: colonized samples immersed in rainwater, day 12) was 5.8, the “pH values in the systems” value (Thiobacilli; System C: colonized samples immersed in rainwater, day 15) was 5.8 and the “pH values in the systems” value (Thiobacilli; System C: colonized samples immersed in rainwater, day 21) was 5.8. The “pH values in the systems” value (Thiobacilli; System C: colonized samples immersed in rainwater, day 29) was 5.8, the “pH values in the systems” value (Thiobacilli; System C: colonized samples immersed in rainwater, day 32) was 5.8 and the “pH values in the systems” value (Thiobacilli; System C: colonized samples immersed in rainwater, day 35) was 5.8. For the same compound, the “pH values in the systems” value (Thiobacilli; System C: colonized samples immersed in rainwater, day 38) was 5.8, the “pH values in the systems” value (Thiobacilli; System C: colonized samples immersed in rainwater, day 42) was 5.8 and the “pH values in the systems” value (Thiobacilli; System C: colonized samples immersed in rainwater, day 46) was 5.8. The “pH values in the systems” value (Thiobacilli; System C: colonized samples immersed in rainwater, day 48) was 5.8.
